One assay deals with T1, AXL (Homo sapiens, UniProt P30530).
T1 construct: purchased ProQinase GmbH
T1 sequence (P30530 26-894): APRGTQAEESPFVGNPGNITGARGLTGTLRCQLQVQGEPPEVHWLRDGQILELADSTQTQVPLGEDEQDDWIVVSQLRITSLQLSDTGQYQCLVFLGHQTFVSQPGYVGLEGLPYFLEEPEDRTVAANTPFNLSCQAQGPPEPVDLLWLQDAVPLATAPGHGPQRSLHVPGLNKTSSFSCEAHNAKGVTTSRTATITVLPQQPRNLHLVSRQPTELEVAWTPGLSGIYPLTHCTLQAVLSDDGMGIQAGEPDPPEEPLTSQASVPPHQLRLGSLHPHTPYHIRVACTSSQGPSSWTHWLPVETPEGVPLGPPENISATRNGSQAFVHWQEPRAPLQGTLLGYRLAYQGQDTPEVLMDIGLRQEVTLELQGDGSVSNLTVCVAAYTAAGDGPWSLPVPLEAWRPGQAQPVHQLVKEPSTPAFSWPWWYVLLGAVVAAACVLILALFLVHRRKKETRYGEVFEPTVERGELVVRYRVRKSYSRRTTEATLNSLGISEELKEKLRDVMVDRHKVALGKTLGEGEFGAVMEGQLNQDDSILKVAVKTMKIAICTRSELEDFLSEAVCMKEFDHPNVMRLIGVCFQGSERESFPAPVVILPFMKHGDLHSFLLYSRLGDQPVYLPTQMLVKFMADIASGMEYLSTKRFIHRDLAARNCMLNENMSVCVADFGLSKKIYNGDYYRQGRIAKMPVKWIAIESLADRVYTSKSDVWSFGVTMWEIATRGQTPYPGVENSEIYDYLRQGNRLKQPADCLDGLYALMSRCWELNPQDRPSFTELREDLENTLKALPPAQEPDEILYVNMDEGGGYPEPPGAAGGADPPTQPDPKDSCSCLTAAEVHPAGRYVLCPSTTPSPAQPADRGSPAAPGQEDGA
The experiment in a line: Radioactive protein kinase assay (33PanQinase Activity Assay), AXL. Conditions: ATP 0.3 μM (Km), substrate Poly(Glu, Tyr) 4:1, 30° C., 60 minutes; read-out: Biochemical IC50 (nM) AXL. On the procedure: (§1) Biochemical inhibitory activity against AXL and VEGFR2 kinases: the biochemical IC50 values of the compound according to the present application for inhibiting AXL and VEGFR2 kinases were measured by ProQinase GmbH Company (Breisacher Str. 117, D-79106 Freiburg, Germany, www.proqinase.com). The specific steps are described as follows:
(§2) Firstly, the compound according to the present application was dissolved in dimethyl sulfoxide (DMSO) to prepare a stock solution of 1×10^−3 M. 10 different concentrations (from […] to 3×10^−10 M) were prepared by the serial semi-logarithmic dilution.
(§3) The biochemical activities of AXL and VEGFR2 were determined by the radioactive protein kinase assay (33PanQinase® Activity Assay). The assay was performed using a FlashPlates™ 96-well plate manufactured by Perkin Elmer (Boston, Mass., USA) with a reaction volume of 50 μL. The reaction mixture was added by a dropper in the following four steps:
(§4) (1) 20 μL of buffer solution (standard buffer);
(§5) (2) 5 μL of an aqueous solution of ATP;
(§6) (3) 5 μL of the compound (10% DMSO solution);
(§7) (4) 10 μL of a substrate/10 μL of a solution of the kinase.
(§8) The solution to be measured contains HEPES-NaOH (70 mM, pH=7.5), MgCl2 (3 mM), MnCl2 (3 mM), Na-orthovanadate (3 μM), DTT (1.2 mM), PEG20000 (50 μg/mL), ATP (in a concentration that is same as Km of the kinase and varies depending on different kinases), [γ-^33P]-ATP (about 4×10^5 cpm/well), kinase and substrate.
(§9) The reaction was carried out at 30° C. for 60 minutes, and 50 μL of 2% (v/v) phosphoric acid was added to terminate the reaction. The reaction mixture in each well was aspirated and washed twice with 200 μL of 0.9% (w/v) NaCl solution. The amount of the incorporation of ^33P was determined by using a microplate scintillation counter.

The target in a further assay is T2, VEGFR2 (Homo sapiens, UniProt P35968).
T2 construct: purchased ProQinase GmbH
Put plainly: Radioactive protein kinase assay (33PanQinase Activity Assay), VEGFR2. Conditions: ATP 1.0 μM (Km), substrate Poly(Glu, Tyr) 4:1, 30° C., 60 minutes; read-out: Biochemical IC50 (nM) VEGFR2. The method, then:
as §1, §2, §3, §4, §5, §6, §7, §8, §9

Data on 13 molecules can be found in patent US10723701B2, “Quinolyl-substituted carboxylic acid compound or pharmaceutically acceptable salt thereof, pharmaceutical composition of the same, and use of the same” (BEIJING KONRUNS PHARMACEUTICAL CO., LTD., priority 2016, dated 2020).

T2 sequence (P35968 20-1356): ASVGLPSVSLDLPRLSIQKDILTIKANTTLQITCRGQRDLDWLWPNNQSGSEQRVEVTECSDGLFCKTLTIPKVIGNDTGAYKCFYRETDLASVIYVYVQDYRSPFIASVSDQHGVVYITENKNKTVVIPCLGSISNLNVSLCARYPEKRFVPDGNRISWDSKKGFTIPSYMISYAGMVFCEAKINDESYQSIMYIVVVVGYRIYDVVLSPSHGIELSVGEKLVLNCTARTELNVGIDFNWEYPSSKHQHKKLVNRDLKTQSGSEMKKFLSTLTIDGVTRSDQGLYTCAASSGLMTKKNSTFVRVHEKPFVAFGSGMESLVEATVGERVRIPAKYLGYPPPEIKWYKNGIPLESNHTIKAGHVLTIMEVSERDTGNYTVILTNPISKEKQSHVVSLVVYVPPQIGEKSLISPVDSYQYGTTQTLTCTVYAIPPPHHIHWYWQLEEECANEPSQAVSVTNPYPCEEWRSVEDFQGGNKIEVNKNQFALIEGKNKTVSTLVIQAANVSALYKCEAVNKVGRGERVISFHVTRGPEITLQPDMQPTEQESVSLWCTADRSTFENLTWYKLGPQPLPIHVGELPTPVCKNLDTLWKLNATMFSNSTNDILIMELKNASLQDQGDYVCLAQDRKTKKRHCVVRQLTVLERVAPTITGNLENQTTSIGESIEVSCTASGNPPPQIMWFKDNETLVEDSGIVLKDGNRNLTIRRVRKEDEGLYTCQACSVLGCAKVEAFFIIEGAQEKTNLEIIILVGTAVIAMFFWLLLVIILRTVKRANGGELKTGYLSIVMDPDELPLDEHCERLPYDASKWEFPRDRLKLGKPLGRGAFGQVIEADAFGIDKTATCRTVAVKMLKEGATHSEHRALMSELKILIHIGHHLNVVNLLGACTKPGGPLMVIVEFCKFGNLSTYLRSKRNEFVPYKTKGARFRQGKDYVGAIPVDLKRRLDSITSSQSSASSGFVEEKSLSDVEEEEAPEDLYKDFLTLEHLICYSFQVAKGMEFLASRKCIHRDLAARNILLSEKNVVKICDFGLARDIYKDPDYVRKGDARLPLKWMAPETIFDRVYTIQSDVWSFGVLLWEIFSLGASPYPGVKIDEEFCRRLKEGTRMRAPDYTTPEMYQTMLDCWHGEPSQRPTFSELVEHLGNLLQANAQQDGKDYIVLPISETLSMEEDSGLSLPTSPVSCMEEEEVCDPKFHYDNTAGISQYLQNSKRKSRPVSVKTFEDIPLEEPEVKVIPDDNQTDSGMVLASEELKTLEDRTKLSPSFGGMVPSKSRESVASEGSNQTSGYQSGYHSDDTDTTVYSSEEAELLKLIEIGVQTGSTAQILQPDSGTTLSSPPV

On to `COc1cc2c(Oc3ccc(NC(=O)C4(C(=O)Nc5ccc(F)cc5)CC4)cc3F)ccnc2cc1OCC(=O)O` [Example 1, 2-[[4-[2-fluoro-4-[[1-[(4-fluorophenyl)carbamoyl]cyclopropanecarbonyl]amino]phenoxy]-6-methoxy-7-quinolyl]oxy]acetic acid], for which the results for the IC50 at AXL and at VEGFR2 were 55.3 nM and 24.5 nM, respectively.
As to `COc1cc2c(Oc3ccc(NC(=O)C4(C(=O)Nc5ccc(F)cc5)CC4)cc3F)ccnc2cc1OCCCC(=O)O` [Example 3, 4-[[4-[2-fluoro-4-[[1-[(4-fluorophenyl)carbamoyl]cyclopropanecarbonyl]amino]phenoxy]-6-methoxy-7-quinolyl]oxy]butyric acid], the values for the IC50 on AXL and on VEGFR2 were 9.86 nM and 6.56 nM, respectively.
For `COc1cc2c(Oc3ccc(NC(=O)C4(C(=O)Nc5ccc(F)cc5)CC4)cc3F)ccnc2cc1OCCCC(=O)O` [Example 4, Sodium 4-[[4-[2-fluoro-4-[[1-[(4-fluorophenyl)carbamoyl]cyclopropanecarbonyl]amino]phenoxy]-6-methoxy-7-quinolyl]oxy]butyrate], the IC50 – broadly, the point on the concentration scale where inhibition reaches its midpoint – came to 9.05 nM on AXL and 8.03 nM at VEGFR2.
For `COc1cc2c(Oc3ccc(NC(=O)C4(C(=O)Nc5ccc(F)cc5)CC4)cc3F)ccnc2cc1OCCCCC(=O)O` [Example 6, 5-[[4-[2-fluoro-4-[[1-[(4-fluorophenyl)carbamoyl]cyclopropanecarbonyl]amino]phenoxy]-6-methoxy-7-quinolyl]oxy]valeric acid], the IC50 is 7.49 nM at AXL and 6.6 nM at VEGFR2.
As to `COc1cc2c(Oc3ccc(NC(=O)C4(C(=O)Nc5ccc(F)cc5)CC4)cc3F)ccnc2cc1OCCCCC(=O)O` [Example 8, Triethylammonium 5-[[4-[2-fluoro-4-[[1-[(4-fluorophenyl)carbamoyl]cyclopropanecarbonyl]amino]phenoxy]-6-methoxy-7-quinolyl]oxy]valerate], the IC50 at AXL was 6.08 nM; at VEGFR2 it was 8.66 nM.
Consider `COc1cc2c(Oc3ccc(NC(=O)C4(C(=O)Nc5ccc(F)cc5)CC4)cc3F)ccnc2cc1OCCCCCC(=O)O` [Example 9, 6-[[4-[2-fluoro-4-[[1-[(4-fluorophenyl)carbamoyl]cyclopropanecarbonyl]amino]phenoxy]-6-methoxy-7-quinolyl]oxy]caproic acid], for which the IC50 on AXL turned out to be 10.2 nM; on VEGFR2, 16 nM.
The like results for `COc1cc2c(Oc3ccc(NC(=O)C4(C(=O)Nc5ccc(F)cc5)CC4)cc3F)ccnc2cc1OCCCCCC(=O)O` [Example 10, Sodium 6-[[4-[2-fluoro-4-[[1-[(4-fluorophenyl)carbamoyl]cyclopropanecarbonyl]amino]phenoxy]-6-methoxy-7-quinolyl]oxy]caproate] were, in that order, 11.9 nM and 13.9 nM.
`COc1cc2c(Oc3ccc(NC(=O)C4(C(=O)Nc5ccc(F)cc5)CC4)cc3F)ccnc2cc1OCCCCCC(=O)O` [Example 11, Potassium 6-[[4-[2-fluoro-4-[[1-[(4-fluorophenyl)carbamoyl]cyclopropanecarbonyl]amino]phenoxy]-6-methoxy-7-quinolyl]oxy]caproate]: the IC50 on AXL is 14.9 nM; at VEGFR2 it was 13.6 nM.
With `COc1cc2c(Oc3ccc(NC(=O)C4(C(=O)Nc5ccc(F)cc5)CC4)cc3F)ccnc2cc1OCCCCCC(=O)O` [Example 12, Calcium 6-[[4-[2-fluoro-4-[[1-[(4-fluorophenyl)carbamoyl]cyclopropanecarbonyl]amino]phenoxy]-6-methoxy-7-quinolyl]oxy]caproate (1:1)], the IC50 at AXL is 10.7 nM; on VEGFR2, 10.4 nM.
Consider `COc1cc2c(Oc3ccc(NC(=O)C4(C(=O)Nc5ccc(F)cc5)CC4)cc3F)ccnc2cc1OCCCCCC(=O)O` [Example 13, 1,3-dihydroxy-2-(hydroxymethyl)propan-2-ammonium 6-[[4-[2-fluoro-4-[[1-[(4-fluorophenyl)carbamoyl]cyclopropanecarbonyl]amino]phenoxy]-6-methoxy-7-quinolyl]oxy]caproate], for which the values for the IC50 on AXL and at VEGFR2 were 8.63 nM and 12.6 nM, respectively.
`COc1cc2c(Oc3ccc(NC(=O)C4(C(=O)Nc5ccc(F)cc5)CC4)cc3F)ccnc2cc1OCCCCCCC(=O)O` [Example 14, 7-[[4-[2-fluoro-4-[[1-[(4-fluorophenyl)carbamoyl]cyclopropanecarbonyl]amino]phenoxy]-6-methoxy-7-quinolyl]oxy]heptanoic acid]: the IC50 at AXL was 13.7 nM; on VEGFR2, 13.6 nM.
With `COc1cc2c(Oc3ccc(NC(=O)C4(C(=O)Nc5cccc(Cl)c5)CC4)cc3F)ccnc2cc1OCCCCCCC(=O)O` [Example 16, Calcium 7-[[4-[2-fluoro-4-[[1-[(3-chlorophenyl)carbamoyl]cyclopropanecarbonyl]amino]phenoxy]-6-methoxy-7-quinolyl]oxy]heptanoate], the IC50 at AXL is 19.8 nM; at VEGFR2, 18.9 nM.
The like results for `CCOc1cc2c(Oc3ccc(NC(=O)C4(C(=O)Nc5ccc(F)cc5)CC4)cc3F)ccnc2cc1OCC(=O)O` [Example 18, Potassium 2-[[4-[2-fluoro-4-[[1-[(4-fluorophenyl)carbamoyl]cyclopropanecarbonyl]amino]phenoxy]-6-ethoxy-7-quinolyl]oxy]acetate] were, in that order, 10.7 nM and 9.86 nM.
